Patent US9994556B2, “Triazole modified coumarin and biphenyl amide-based HSP90 inhibitors” (THE UNIVERSITY OF KANSAS, priority 2014, dated 2018)
“Also recorded” adds a separate entry of the source. Read-outs that look alike come from different tables or passages of the source.

Legend:
[1] = test system: JMAR cell line; experiment: Promega CellTiter-Glo (CTG) luminescent assay, JMAR; type: cell-based; details: 72 hr, mean ± standard deviation
Protocol: (§1) b) Promega CellTiter-Glo (CTG) Luminescent Assay
(§2) Antiproliferative activities against MDA-MB-468LN, MDA1986 and JMAR cell lines were performed with 384-well white plates with the Promega CellTiter-Glo (CTG) luminescent assay with 72 hr compound treatment. Data analysis was performed using GraphPad Prism. Selected data were further checked with MTS/PMS cell viability assay with 96-well plates, which correlated well with Promega CellTiter-Glo luminescent assay.

[2] = test system: LNCaP cells; experiment: Sulforhodamine B assay, LNCaP; type: cell-based; details: Homo sapiens, mean ± standard deviation
Protocol: (§3) c) Sulforhodamine B Assay
(§4) The sulforhodamine B assay is used to measure drug-induced cytotoxicity and cell proliferation for large-scale drug-screening applications. Its principle is based on the ability of the protein dye sulforhodamine B to bind electrostatically on pH dependent protein basic amino acid residues of trichloroacetic acid-fixed cells. The aim is to evaluate samples showing selective growth inhibition or cell killing of particular tumor cell lines.
(§5) The SRB assay is performed by treating cells using a 10 point dose-response curve. The cells are fixed with trichloroacetic acid solution and stained with sulforhodamine B dye. The stained cells are then solubilized with 10 mM Tris buffer and read for absorbance at 565 nm.
(§6) Percentage growth is calculated at each of the drug concentration levels using the absorbance raw data.
(§7) Percentage growth inhibition is calculated as: [(Ti−Tz)/(C−Tz)]×100 for concentrations for which Ti≥Tz. [(Ti−Tz)/(Tz)]×100 for concentrations for which Ti<Tz.
(§8) Ti=Absorbance of wells at a given drug concentration level.
(§9) Tz=Absorbance time zero wells
(§10) C=Absorbance of untreated wells (media and cells only)
(§11) After growth inhibition values have been calculated, the data is plotted on Graphpad Prism software. Data is entered and plotted on a sigmoidal dose-response curve using non-linear regression.

[3] = test system: MCF-7 cells; experiment: MTS/PMS cell viability assay, MCF-7; type: cell-based; details: Homo sapiens, MCF7
Protocol: (§12) a) MTS/PMS Cell Viability Assay (SKBr3 and MCF-7 Cells)
(§13) Cells were maintained in a 1:1 mixture of Advanced DMEM/F12 (Gibco) supplemented with non-essential amino acids, L-glutamine (2 mM), streptomycin (500 μg/mL), penicillin (100 units/mL), and 10% FBS. Cells were grown to confluence in a humidified atmosphere (37° C., 5% CO2), seeded (2000/well, 100 μL) in 96-well plates, and allowed to attach overnight. Compound at varying concentrations in DMSO (1% DMSO final concentration) was added, and cells were returned to the incubator for 72 hr. At 72 hr, the number of viable cells was determined using an MTS/PMS cell proliferation kit (Promega) per the manufacturer's instructions. Cells incubated in 1% DMSO were used at 100% proliferation, and values were adjusted accordingly. IC50 values were calculated from separate experiments performed in triplicate using GraphPad Prism.

[4] = test system: Hsp90 client proteins Her2, Akt, Raf-1 and CDK6; experiment: Western blot analyses of Hsp90 client protein degradation in MCF-7 cell lysates; type: cell-based, human; details: MCF-7 lysates, 24 h; L = 1/2 and H = 5 times the antiproliferative IC50
Protocol: MCF-7 cells were cultured as described above and treated with various concentrations of drug, Geldanamycin (GDA or G) in DMSO (1% DMSO final concentration), or vehicle (DMSO) for 24 hr. Cells were harvested in cold PBS and lysed in RIPA lysis buffer containing 1 mM PMSF, 2 mM sodium orthovanadate, and protease inhibitors on ice for 1 hr. Lysates were clarified at 14000 g for 10 min at 4° C. Protein concentrations were determined using the Pierce BCA protein assay kit per the manufacturer's instructions. Equal amounts of protein (15 μg) were electrophoresed under reducing conditions, transferred to a PVDF membrane, and immunoblotted with the corresponding specific antibodies. Membranes were incubated with an appropriate horseradish peroxidase-labeled secondary antibody, developed with a chemiluminescent substrate, and visualized.

[5] = test system: MDA1986 cell line; experiment: Promega CellTiter-Glo (CTG) luminescent assay, MDA1986; type: cell-based; details: 72 hr, mean ± standard deviation, read-out: IC50 MDA1986
Protocol: as §1, §2

[6] = test system: SKBr3 cells; experiment: MTS/PMS cell viability assay, SKBr3; type: cell-based; details: Homo sapiens, SK-BR-3, 72 hr, mean ± standard deviation, read-out: IC50 SKBr3
Protocol: as §12, §13

[7] = test system: MDA-MB-468LN cell line; experiment: Promega CellTiter-Glo (CTG) luminescent assay, MDA-MB-468LN; type: cell-based; details: Homo sapiens, 72 hr, mean ± standard deviation
Protocol: as §1, §2

[8] = test system: PC3-MM2 cells; experiment: Sulforhodamine B assay, PC3-MM2; type: cell-based; details: Homo sapiens, PC3MM2, mean ± standard deviation
Protocol: as §3, §4, §5, §6, §7, §8, §9, §10, §11

[9] = Table 1 coumarin-based triazoles
[10] = Table 1 coumarin-based triazoles, 72 hr, mean ± standard deviation, read-out: IC50 MCF-7
[11] = Table 1 coumarin-based triazoles, at least two experiments in triplicate
[12] = Table 2 biphenyl triazole analogues
[13] = Table 2 biphenyl triazole analogues, 72 hr, mean ± standard deviation, read-out: IC50 MCF-7

Row | IC50 [2, 9] [nM] | IC50 [3, 10] [nM] | IC50 [6, 11] [nM] | IC50 [7, 9] [nM] | IC50 [8, 9] [nM] | IC50 [2, 12] [nM] | IC50 [3, 13] [nM] | IC50 [6, 12] [nM] | IC50 [7, 12] [nM] | IC50 [8, 12] [nM] | IC50 ([3]; read-out: IC50 against MCF-7 cell line) [nM] | Structure (SMILES) | IC50 [1, 9] [nM] | Hsp90 client proteins Her2, Akt and Raf-1 (Western blot) [4] | IC50 [5, 9] [nM] | IC50 [1, 12] [nM] | IC50 [5, 12] [nM]
1 | – | – | – | – | – | 600 ± 340 | 550 ± 10 | 450 ± 40 | 560 ± 250 | 1030 ± 160 | – | CN1CCC(Oc2ccc(-c3ccc(NC(=O)c4cn(Cc5ccc([N+](=O)[O-])cc5)nn4)cc3)cc2)CC1 [5i, 1-(4-Nitrobenzyl)-N-(4′-((1-methylpiperidin-4-yl)oxy)-[1,1′-biphenyl]-4-yl)-1H-1,2,3-triazole-4-carboxamide] | – | – | – | 210 ± 350 | 190 ± 170
2 | – | – | – | – | – | 1640 ± 970 | 1040 ± 80 | 720 ± 180 | 1090 ± 230 | 2810 ± 1820 | – | CN1CCC(Oc2ccc(-c3ccc(NC(=O)c4cn(Cc5ccc(F)cc5)nn4)cc3)cc2)CC1 [5j, 1-(4-Fluorobenzyl)-N-(4′-((1-methylpiperidin-4-yl)oxy)-[1,1′-biphenyl]-4-yl)-1H-1,2,3-triazole-4-carboxamide] | – | – | – | 1390 ± 520 | 930 ± 340
3 | – | – | – | – | – | 120 ± 100 | 340 ± 20 | 390 ± 10 | 170 ± 20 | 350 ± 140 | – | CN1CCC(Oc2ccc(-c3ccc(NC(=O)c4cn(Cc5cccc(Cl)c5)nn4)cc3)cc2)CC1 [5k, 1-(3-Chlorobenzyl)-N-(4′-((1-methylpiperidin-4-yl)oxy)-[1,1′-biphenyl]-4-yl)-1H-1,2,3-triazole-4-carboxamide] | – | – | – | 270 ± 40 | 170 ± 120
4 | – | – | – | – | – | 160 | 160 ± 20 | 320 ± 20 | 190 ± 50 | 550 ± 370 | – | COc1cccc(Cn2cc(C(=O)Nc3ccc(-c4ccc(OC5CCN(C)CC5)cc4)cc3)nn2)c1 [5l, 1-(3-Methoxybenzyl)-N-(4′-((1-methylpiperidin-4-yl)oxy)-[1,1′-biphenyl]-4-yl)-1H-1,2,3-triazole-4-carboxamide] | – | – | – | 210 ± 120 | 280 ± 90
5 | – | – | – | – | – | 610 ± 340 | 380 ± 30 | 340 ± 40 | 220 ± 30 | 1040 ± 510 | – | CN1CCC(Oc2ccc(-c3ccc(NC(=O)c4cn(Cc5ccccc5Cl)nn4)cc3)cc2)CC1 [5m, 1-(2-Chlorobenzyl)-N-(4′-((1-methylpiperidin-4-yl)oxy)-[1,1′-biphenyl]-4-yl)-1H-1,2,3-triazole-4-carboxamide] | – | – | – | 650 | 810 ± 50
6 | – | – | – | – | – | 50 ± 40 | 200 ± 50 | 160 ± 10 | 150 ± 20 | 350 ± 120 | – | Cc1ccc(Cn2cc(C(=O)Nc3ccc(-c4ccc(OC5CCN(C)CC5)cc4)cc3)nn2)c(Cl)c1 [5n, 1-(2-Chloro-4-methylbenzyl)-N-(4′-((1-methylpiperidin-4-yl)oxy)-[1,1′-biphenyl]-4-yl)-1H-1,2,3-triazole-4-carboxamide] | – | – | – | 430 ± 250 | 150 ± 60
7 | – | – | – | – | – | 480 ± 680 | 310 ± 40 | 200 ± 20 | 240 ± 60 | 5120 ± 6540 | – | CN1CCC(Oc2ccc(-c3ccc(NC(=O)c4cn(CC5CCCCC5)nn4)cc3)cc2)CC1 [5o, 1-(Cyclohexylmethyl)-N-(4′-((1-methylpiperidin-4-yl)oxy)-[1,1′-biphenyl]-4-yl)-1H-1,2,3-triazole-4-carboxamide] | – | – | – | 260 ± 450 | 380 ± 140

Second part, the compound before the results:

Row | Structure (SMILES) | IC50 [2, 9] [nM] | IC50 [3, 10] [nM] | IC50 [6, 11] [nM] | IC50 [7, 9] [nM] | IC50 [8, 9] [nM] | IC50 [2, 12] [nM] | IC50 [3, 13] [nM] | IC50 [6, 12] [nM] | IC50 [7, 12] [nM] | IC50 [8, 12] [nM] | IC50 ([3]; read-out: IC50 against MCF-7 cell line) [nM] | IC50 [1, 9] [nM] | Hsp90 client proteins Her2, Akt and Raf-1 (Western blot) [4] | IC50 [5, 9] [nM] | IC50 [1, 12] [nM] | IC50 [5, 12] [nM]
8 | Cc1c(OC2CCN(C)CC2)ccc2cc(NC(=O)c3cn(-c4cccc(Cl)c4)nn3)c(=O)oc12 [4f, 1-(3-Chlorophenyl)-N-(8-methyl-7-((1-methylpiperidin-4-yl)oxy)-2-oxo-2H-chromen-3-yl)-1H-1,2,3-triazole-4-carboxamide] | 13300 ± 11900 | 1140 ± 180 | 710 ± 140 | 4600 | 3900 ± 5110 | – | – | – | – | – | – | 6400 | degraded | 6400 | – | –
9 | COc1cccc(Cn2cc(C(=O)Nc3cc4ccc(OC5CCN(C)CC5)c(C)c4oc3=O)nn2)c1 [4o, 1-(3-Methoxybenzyl)-N-(8-methyl-7-((1-methylpiperidin-4-yl)oxy)-2-oxo-2H-chromen-3-yl)-1H-1,2,3-triazole-4-carboxamide] | 3490 ± 300 | 1610 ± 60 | 1150 ± 190 | 2690 ± 1330 | 7200 ± 150 | – | – | – | – | – | – | 1490 ± 310 | degraded | 1340 ± 310 | – | –
10 | Cc1c(OC2CCN(C)CC2)ccc2cc(NC(=O)c3cn(CC4CCCCC4)nn3)c(=O)oc12 [4q, 1-(Cyclohexylmethyl)-N-(8-methyl-7-((1-methylpiperidin-4-yl)oxy)-2-oxo-2H-chromen-3-yl)-1H-1,2,3-triazole-4-carboxamide] | 1200 ± 60 | 1290 ± 160 | 610 | 990 ± 240 | 3130 ± 140 | – | – | – | – | – | – | 300 ± 260 | degraded | 240 ± 320 | – | –
11 | CN1CCC(Oc2ccc(-c3ccc(NC(=O)c4cn(Cc5ccc(Cl)cc5)nn4)cc3)cc2)CC1 [5d, 1-(4-Chlorobenzyl)-N-(4′-((1-methylpiperidin-4-yl)oxy)-[1, 1′-biphenyl]-4-yl)-1H-1,2,3-triazole-4-carboxamide] | – | – | – | – | – | 1590 ± 780 | 440 ± 40 | 320 ± 100 | 740 ± 190 | 660 ± 210 | – | – | – | – | 2300 ± 820 | 1300 ± 370
12 | CN1CCC(Oc2ccc(-c3ccc(NC(=O)c4cn(Cc5ccc(Br)cc5)nn4)cc3)cc2)CC1 [5e, 1-(4-Bromobenzyl)-N-(4′-((1-methylpiperidin-4-yl)oxy)-[1,1′-biphenyl]-4-yl)-1H-1,2,3-triazole-4-carboxamide] | – | – | – | – | – | 540 ± 120 | 560 ± 40 | 490 ± 30 | 2800 ± 610 | 19900 ± 27900 | – | – | – | – | 7800 | 3100 ± 870
13 | COc1ccc(Cn2cc(C(=O)Nc3ccc(-c4ccc(OC5CCN(C)CC5)cc4)cc3)nn2)cc1 [5g, 1-(4-Methoxybenzyl)-N-(4′-((1-methylpiperidin-4-yl)oxy)-[1,1′-biphenyl]-4-yl)-1H-1,2,3-triazole-4-carboxamide] | – | – | – | – | – | 240 ± 70 | 270 ± 60 | 160 ± 20 | 170 | 440 ± 190 | 270 | – | decreased; also recorded: Clear degradation | – | 610 ± 90 | 480 ± 90
14 | CN1CCC(Oc2ccc(-c3ccc(NC(=O)c4cn(Cc5ccc(C(C)(C)C)cc5)nn4)cc3)cc2)CC1 [5h, 1-(4-tert-Butylbenzyl)-N-(4′-((1-methylpiperidin-4-yl)oxy)-[1,1′-biphenyl]-4-yl)-1H-1,2,3-triazole-4-carboxamide] | – | – | – | – | – | 1010 ± 1390 | 10500 ± 400 | 3720 ± 680 | 2610 ± 760 | > 100000 | – | – | – | – | 3490 ± 2050 | 2340 ± 1810
